Test results published in US20140242200A1, “WATER-SOLUBLE EXTRACTS OF ARTEMISIA DRACUNCULUS (TARRAGON) FOR IMPROVEMENT OF GLUCOSE METABOLISM” (Finzelberg GmbH & Co. KG, priority 2008, published 2014).

What was measured:
[1] = test system: Male non-fasted Wistar rats; experiment: Basal blood glucose levels in rats (no glucose challenge); assay type: in vivo; details: oral treatment, extracts 6 mg/kg, blood samples 0-180 min, one-way ANOVA, Student-Newman-Keuls
Method: (§1) A common way of testing for an effect of extracts or new chemical entities on blood glucose levels is the glucose challenge test (Verspohl, E. J.: Recommended testing in diabetes research. Planta Med 68 (7): 581-90, 2002) in which rats are given the extract, control, or a known antidiabetic substance with (challenge) and without (basal) an intraperitoneal (i.p.) dose of glucose. The extracts are given orally 30 min. before the glucose challenge. Blood samples are taken sublingual at time points 0, 15, 30, 60, and 120 minutes for the glucose challenge or 0, 30, 60, 120, and 180 minutes for basal blood glucose levels. This sampling scheme ensures to monitor both effects of extracts on basal blood glucose levels over a longer time period and the blood glucose levels after glucose challenge closely enough. […]
(§2) Blood was drawn at the appropriate time points from the sublingual vein after a short halothane anesthesia and stored at 4° C. with addition of heparin. […] The supernatant plasma was taken and analyzed using an autoanalyzer (Merck, Darmstadt). […]
(§3) Both percent and AUC data were analyzed by one-way ANOVA and Student-Newman-Keuls Multiple Comparison Test using Graphpad 4.0 Software, San Diego, USA. The AUC (area under the curve) was calculated using the trapezoidal rule without extensions beyond the last time point measured.

[2] = test system: Male non-fasted Wistar rats; experiment: Glucose challenge test (i.p. glucose) in rats; assay type: in vivo; details: oral treatment 30 min before i.p. glucose; extracts 6 mg/kg; blood samples 0-120 min; one-way ANOVA, Student-Newman-Keuls
Method: as §1, §2, §3

Compound	effect on basal blood glucose levels [1]	effect on lowering the blood glucose levels following the i.p. glucose challenge [2]
COc1ccc(Cl)cc1C(=O)NCCc1ccc(S(=O)(=O)NC(=O)NC2CCCCC2)cc1 [glyburide]	significant effect	significant effect
N[C@@H](CC(=O)N1CCn2c(nnc2C(F)(F)F)C1)Cc1cc(F)c(F)cc1F [sitagliptin]	significant effect	significant effect
